Laboratory results published in the supplement of paper PMC10307832.

Tests used:
Experiment in all cases: relative viability (nuclei count vs DMSO), 5 days (fraction); higher = more cells survive
SK-LU-1 = system: SK-LU-1
How it was run: (§1)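 Relative viability equals treated-well nuclei counts divided by vehicle-well nuclei counts. Counts came from 4× images of lung cancer cell lines grown in 1536-well plates for 5 days after pin-tool dosing on the day after seeding. Dosing used one drug alone or a fixed anchor-drug dose plus five library-drug doses (not always all listed) in √10 steps, and values are medians of duplicate plates.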

NCI-H1734 = system: NCI-H1734
How it was run: as §1

HOP-62 = system: HOP-62
How it was run: as §1

LCLC-97TM1 = system: LCLC-97TM1
How it was run: as §1

SW 1573 = system: SW 1573
How it was run: as §1

EPLC-272H = system: EPLC-272H
How it was run: as §1

NCI-H2347 = system: NCI-H2347
How it was run: as §1

NCI-H1563 = system: NCI-H1563
How it was run: as §1

NCI-H661 = system: NCI-H661
How it was run: as §1

NCI-H1993 = system: NCI-H1993
How it was run: as §1

H3255 = system: H3255
How it was run: as §1

## CCN(CC)CCCCNc1ncc2cc(-c3cc(OC)cc(OC)c3)c(NC(=O)NC(C)(C)C)nc2n1 + Cc1nc(Nc2ncc(C(=O)Nc3c(C)cccc3Cl)s2)cc(N2CCN(CCO)CC2)n1 [Dasatinib] (partner 0.075 µM)
SK-LU-1; first compound 0.01 µM
  relative viability: 0.158
SK-LU-1; first compound 0.03162 µM
  relative viability: 0.163
SK-LU-1; first compound 0.1 µM
  relative viability: 0.177
SK-LU-1; first compound 0.3162 µM
  relative viability: 0.194
SK-LU-1; first compound 1 µM
  relative viability: 0.13
NCI-H1734; first compound 0.01 µM
  relative viability: 0.508
NCI-H1734; first compound 0.03162 µM
  relative viability: 0.507
NCI-H1734; first compound 0.1 µM
  relative viability: 0.521
NCI-H1734; first compound 0.3162 µM
  relative viability: 0.543
NCI-H1734; first compound 1 µM
  relative viability: 0.436
HOP-62; first compound 0.01 µM
  relative viability: 0.67
HOP-62; first compound 0.03162 µM
  relative viability: 0.726
HOP-62; first compound 0.1 µM
  relative viability: 0.828
HOP-62; first compound 0.3162 µM
  relative viability: 0.707
HOP-62; first compound 1 µM
  relative viability: 0.417
LCLC-97TM1; first compound 0.01 µM
  relative viability: 0.806
LCLC-97TM1; first compound 0.03162 µM
  relative viability: 0.877
LCLC-97TM1; first compound 0.1 µM
  relative viability: 0.93
LCLC-97TM1; first compound 0.3162 µM
  relative viability: 0.934
LCLC-97TM1; first compound 1 µM
  relative viability: 0.838
SW 1573; first compound 0.01 µM
  relative viability: 0.355
SW 1573; first compound 0.03162 µM
  relative viability: 0.537
SW 1573; first compound 0.1 µM
  relative viability: 0.457
SW 1573; first compound 0.3162 µM
  relative viability: 0.482
SW 1573; first compound 1 µM
  relative viability: 0.326
EPLC-272H; first compound 0.01 µM
  relative viability: 0.379
EPLC-272H; first compound 0.03162 µM
  relative viability: 1.08
EPLC-272H; first compound 0.1 µM
  relative viability: 0.322
EPLC-272H; first compound 0.3162 µM
  relative viability: 0.294
EPLC-272H; first compound 1 µM
  relative viability: 0.241
NCI-H2347; first compound 0.01 µM
  relative viability: 0.149
NCI-H2347; first compound 0.03162 µM
  relative viability: 0.315
NCI-H2347; first compound 0.1 µM
  relative viability: 0.39
NCI-H2347; first compound 0.3162 µM
  relative viability: 0.288
NCI-H2347; first compound 1 µM
  relative viability: 0.31
NCI-H1563; first compound 0.01 µM
  relative viability: 0.477
NCI-H1563; first compound 0.03162 µM
  relative viability: 0.412
NCI-H1563; first compound 0.1 µM
  relative viability: 0.474
NCI-H1563; first compound 0.3162 µM
  relative viability: 0.478
NCI-H1563; first compound 1 µM
  relative viability: 0.503
NCI-H661; first compound 0.01 µM
  relative viability: 0.906
NCI-H661; first compound 0.03162 µM
  relative viability: 0.841
NCI-H661; first compound 0.1 µM
  relative viability: 1.1
NCI-H661; first compound 0.3162 µM
  relative viability: 1.03
NCI-H661; first compound 1 µM
  relative viability: 0.644
NCI-H1993; first compound 0.01 µM
  relative viability: 0.31
NCI-H1993; first compound 0.03162 µM
  relative viability: 0.604
NCI-H1993; first compound 0.1 µM
  relative viability: 0.611
NCI-H1993; first compound 0.3162 µM
  relative viability: 0.604
NCI-H1993; first compound 1 µM
  relative viability: 0.536
H3255; first compound 0.01 µM
  relative viability: 0.342
H3255; first compound 0.03162 µM
  relative viability: 0.305
H3255; first compound 0.1 µM
  relative viability: 0.478
H3255; first compound 0.3162 µM
  relative viability: 0.594
H3255; first compound 1 µM
  relative viability: 0.339
